ChEMBL document CHEMBL3301361, “Experimental in vitro DMPK and physicochemical data on a set of publicly disclosed compounds”

assay: physchem; conditions: octan-1-ol/water, pH 7.4

SMILES	logD
N#Cc1c(-c2ccccc2)nc(SCCc2ccccc2)[nH]c1=O	1.71
CCCNC(=O)c1nnc2c(-c3cnc(OC)nc3OC)cccc2c1N	3.26
CC(=O)N(C)c1ccccc1	1.1
Clc1ccc([C@]23CNC[C@H]2C3)cc1Cl [AMITIFADINE]	1.96
NC(=O)c1cccc(C[C@H]2C[C@H]3CC[C@@H](C2)N3Cc2ccccc2)c1	1.19
CCCNC(=O)c1nnc2c(-c3cncc(C(=O)N4CCC4)c3)cccc2c1N	2.79
CCC(COC(=O)c1cc(OC)c(OC)c(OC)c1)(c1ccccc1)N(C)C (stereo not drawn) [TRIMEBUTINE]	3.77
O=C(NCc1ccncn1)c1ccc(Oc2ccc(C#C[C@@]3(O)CN4CCC3CC4)cc2)cc1	1.77
C=C(C)[C@H]1Cc2c(ccc3c2O[C@@H]2COc4cc(OC)c(OC)cc4[C@@H]2C3=O)O1 [ROTENONE]	3.57
O=C(N[C@H]1CN2CCC1CC2)c1ccc(-c2ccccn2)s1	0.7
Cc1ccc(OC(=O)N2CCN3CCC2CC3)cc1	1.02
CCCNC(=O)c1nnc2c(-c3cnccc3OC)cccc2c1N	2.83
Cc1ccc(-c2nnc(O)c3ccccc23)c(C)c1	3.41
C[C@@H]1CN(C(=O)OC(C)(C)C)CCN1c1ncc(OCc2ccc(S(C)(=O)=O)cc2)cn1	3.6

same assay, conditions: octan-1-ol/water, pH 7.4, LogD7.4

SMILES	logD
CC(O)(C(=O)Nc1ccc(S(=O)(=O)c2ccc(O)cc2)cc1)C(F)(F)F (stereo not drawn)	2.78
C=CCCCCCCCCC(=O)N[C@H]1CCC(=O)NC1=O	2.64
Cc1cnc2nc(SCc3cccc(F)c3F)nc(N[C@H](C)CO)c2n1	3.5
Cc1c(CCC(=O)O)c(=O)oc2c(C)c(O)ccc12	-0.3
COCCNCc1ccc(CCNC[C@H](O)c2ccc(O)c3[nH]c(=O)sc23)cc1	-0.54
CC(=O)[C@@]1(O)CC[C@H]2[C@@H]3C[C@H](C)C4=CC(=O)C=C[C@]4(C)[C@@]3(F)[C@@H](O)C[C@@]21C [FLUOROMETHOLONE]	2.65
O=S(=O)(Nc1cc(F)ccc1F)c1ccc(Cl)cc1	2.9
CC(C)C(NC(=O)Cn1c(-c2ccccc2)ccc(NC(=O)OCc2ccncc2)c1=O)C(=O)C(F)(F)F (stereo not drawn)	2.41
CN[C@@H](C)C(=O)N[C@H](C(=O)N[C@H]1CCCN(CCc2ccccn2)C1)C(C)(C)C	-0.55
COc1c(C#N)cc2ccccc2c1C(=O)N(C)C[C@@H](CCN1CCC(N2CCCNC2=O)CC1)c1ccc(Cl)c(Cl)c1	3
Nc1cccc(CCc2ccc3cc[nH]c3c2)n1	2.8
O=C(CC1CCN(Cc2ccn(-c3ccc(C(F)(F)F)cc3)c2)CC1)NC(c1ccc(F)cc1)c1ccc(=O)[nH]c1 (stereo not drawn)	3.04
CCOC(=O)c1ccc(COC2CN(c3ccc(C)nn3)C2)cc1	2.5
Cc1cc(N)n(-c2ccccc2)n1	1.25
NS(=O)(=O)c1nc2ccccc2s1	1.35
CC(CNS(=O)(=O)C(C)C)c1ccc(-c2ccc(C#N)cc2)cc1 (stereo not drawn)	3.5
Cc1nc(C(=O)[C@@H](C)Oc2ccc(SCCCCCc3ccccc3)cc2)sc1CCCC(=O)O	3.58
NC(=O)C(NC(=O)C1(N)CCN(c2ncnc3[nH]ccc23)CC1)c1ccc(Cl)cc1 (stereo not drawn)	2.2
OC(CCN1CCCCC1)(c1ccccc1)C1CC2C=CC1C2 (stereo not drawn) [BIPERIDEN]	2.49
Nc1nc(N)c2cc(Br)ccc2n1	1.78
COc1ccc2c(C)cc(N[C@H]3CCC[C@H](NCc4cccc(OC(F)(F)F)c4)C3)nc2c1	3.61

SMILES	logD
COc1cc2ncc(C(N)=O)c(Nc3ccc(C)cc3F)c2cc1OC	3.34
CCCc1cc(OCc2ccccc2)cc(=O)n1Cc1ccc(-c2ccccc2-c2nn[nH]n2)cc1	2.4
Nc1nc(CCc2cccc(Br)c2)cc(=O)[nH]1	2.52
CCOC(=O)c1cc(O)c(-c2ccccc2)nn1	0.69
COCCC(=O)N[C@H](C)c1ccc(Nc2ncc3cc(-c4ccncc4)ccc3n2)cc1	3.08
O=C1c2ccc(O)cc2C(=O)N1c1ccccc1	2.3
FC(F)c1nc2ccccc2[nH]1	2.02
Oc1ccc(C2CNCCc3c2cc(O)c(O)c3Cl)cc1 (stereo not drawn) [FENOLDOPAM]	0.87
Cc1cc(C)c2c(n1)sc1c(N3CCN(C)CC3)ncnc12	3.2
Oc1ncnc2onc(-c3ccc(F)cc3)c12	1.97
O=C(Nc1ccccc1)Nc1ccccc1C(=O)O	-0.12
Cc1ccc(Oc2ccc(C(=O)NCc3ccncc3)cc2)cc1	3.65
CCCSc1nc(NC[C@H]2CC[C@H](C(=O)O)CC2)ccc1C(=O)NC1CCCCC1	2.61
O=C(N[C@@H](Cc1ccc(OCCNc2ccccn2)cc1)C(=O)O)c1c(Cl)cccc1Cl	-0.48
Clc1ccc2[nH]ncc2c1	2.44
O=C1C(=O)c2cc(-c3ccccc3F)ccc2-c2ccccc21	2.92
Clc1ccccc1-c1c[nH]nn1	2.68
COc1ccc2cc(CCC(C)=O)ccc2c1 [NABUMETONE]	3.06
COc1ccc(Cl)cc1NC(=O)CCS(=O)(=O)c1ccc(Br)cc1	3.4
O=[N+]([O-])c1ccc(C=NO)o1	1.31
O=C1CCOc2nc(C#CC3CCCC3)ccc21	3

SMILES	logD
CCCc1c(OCc2ccc(-c3nn[nH]n3)cc2OC)ccc(C(C)=O)c1O	2.8
Cc1cc(-c2ccc(N3C[C@H](Cn4ccnn4)OC3=O)cc2F)on1	1.99
CS(=O)(=O)N1CCOc2cc(COc3ccccc3)cnc21	2.4
COc1cc2ncc(C(N)=O)c(Nc3cccc(Cl)c3F)c2cc1OC	3.6
COc1ccc(-c2c(F)ccc3c(N)c(C(=O)NC4CC4)nnc23)c(OC)n1	3.37
Cc1ccc(Oc2cccc(CN3CCCC(n4cc(C)c(=O)[nH]c4=O)C3)c2)cc1 (stereo not drawn)	3.38
Cn1cc(-c2ccc(O)cc2)c(=O)c2c(O)cc(O)cc21	2.2
O=C(COCc1cscn1)N1CCN(c2ccc(Cl)cc2Cl)CC1	3.07
Cc1ccc2c(n1)c(Sc1ccc(Cl)cc1)c(C)n2CC(=O)O	0.35
Cc1ncc(-c2nc(Nc3ccc(C(=O)NCCN(C)C)c(F)c3)ncc2F)n1C(C)C	2.26
CCOC(=O)c1ccc(N)cc1 [BENZOCAINE]	1.83
CN(C)c1ccnc2sc(C(N)=O)c(N)c12	1.7
CC1(c2ccccc2)CC(=O)NC(N)=N1 (stereo not drawn)	0.62
NCCCC(=O)OCCN1CCN(CCCN2c3ccccc3Sc3ccc(Cl)cc32)CC1 [PERPHENAZINE 4-AMINOBUTYRATE]	1.5
Brc1cnc(NCc2ccccc2)nc1Nc1cc(C2CC2)n[nH]1	4.11
COc1cc2c(Nc3ccc(F)c(Cl)c3)c(C(N)=O)cnc2cc1OCCCN1CCN(C)CC1	1.2
COc1cc(C(=O)Nc2cc(NC(=O)c3cccc(N(C)C)c3)ccc2C)cc(OC)c1OC	2.54
Cc1ccc(CO)cc1N(C)c1ccnc(Nc2cc(OC3CCOCC3)cc(N3CCOCC3)c2)n1	3.7
O=S(=O)(Nc1nccs1)c1cc(Cl)ccc1Cl	1.14
CCCS(=O)(=O)N1CCCC(C(=O)N2CCC(Cc3ccccc3)CC2)C1 (stereo not drawn)	3.44
Nc1nc(N)c2nc(CO)cnc2n1	-0.45

Second part, the compound after the results:

logD	SMILES
1.88	O=c1c(-c2ccc(O)c(O)c2)coc2cc(O)ccc12
1.85	O=C(O)c1[nH]c2cc(Cl)cc(Cl)c2c1/C=C1\CCN(c2ccccc2)C1=O
1.39	CCC(c1nc2ccsc2c(=O)n1Cc1ccccc1)N(CCCN)C(=O)c1ccc(OC)cc1 (stereo not drawn)
0.51	O=C(N[C@@H](Cc1ccc(CCCCNc2ccccn2)cc1)C(=O)O)c1c(Cl)cccc1Cl
1.72	CCCSc1nc(N2CCCC(C(=O)O)C2)ccc1C(=O)NC1CCCCC1 (stereo not drawn)
2.57	CC(C)C(NC(=O)Cn1c(-c2ccccc2)ccc(NS(=O)(=O)NCc2ccccc2)c1=O)C(=O)C(F)(F)F (stereo not drawn)
1.2	Cc1ccc(-c2ccc(S(=O)(=O)N3CCC[C@H]3C(=O)N3CC[C@@H](N)C3)cc2F)o1
2.45	O=c1c(-c2ccc(O)c(O)c2)coc2cc(O)cc(O)c12 [OROBOL]
2.33	Cc1ccc(Cl)c(Nc2ccccc2C(=O)O)c1Cl [MECLOFENAMIC ACID]
2.26	COc1cc(OC2CCN(C)CC2)c2c(Nc3cccc4c3OCCO4)ncnc2c1
1.43	CSc1ncccc1C(=O)Nc1nccs1
1.85	O=S1NC(Cc2ccc3ccccc3c2)=NO1 (stereo not drawn)
2.5	COc1ccccc1N1CCN(Cc2c(Br)c(=O)n(-c3ccccc3)n2C)CC1
-0.93	O=C(c1ccccc1)c1ccc2n1CCC2C(=O)O (stereo not drawn) [KETOROLAC]
1.39	Nc1ncc(-c2ccc(F)cc2)[nH]1
2.96	Cc1cc(NC(=O)Nc2ccc(Cl)cc2)n(C)n1
0.89	O=c1[nH][nH]c(=O)c2c(O)c3c(Cl)cc(Cl)cc3nc12
2.06	COc1cc(F)ccc1-c1cccc(CNC2CCCC2)n1

logD	SMILES
2.3	Nc1cc2n[nH]c(=O)n2c2cc(-c3ccc[nH]3)ccc12
3.62	O=C(Nc1nc(-c2ccccc2)cs1)c1cccnc1
1.89	c1ccc(CC2NCCc3ccccc32)cc1 (stereo not drawn)
2	O=C(OCCN1CCCCC1)c1c[nH]c2ccccc12
2.3	N#Cc1cnn2c(N)cc(-c3cccs3)nc12
1.62	CCCCCc1cc(=O)[nH]c(N)n1
1.27	NC(=O)Nc1sc(-c2ccccc2)cc1C(=O)N[C@H]1CCCNC1
2.06	CCC(c1nc2sccc2c(=O)n1Cc1ccccc1)N(CCCN)C(=O)c1ccc(C)cc1 (stereo not drawn)
4.05	CC(C)Cn1c(=O)n(C)c(=O)c2c(SCCCO)c(Cc3ccccc3C(F)(F)F)sc21
3.83	O=C(CC12CC3CC(CC(C3)C1)C2)Nc1cccc2ncccc12
2.27	COc1cc(-c2nnc(S)n2-c2cccc(C(F)(F)F)c2)cc(OC)c1OC
3.79	Cc1ccc(C(=O)N2CCC(C(=O)c3ccc(Cl)cc3)CC2)cc1
3.3	C[C@@H](NC(=O)C1(N)CCN(c2ncnc3[nH]ccc23)CC1)c1ccc(Cl)cc1
1.7	Cc1cc(C)cc(-c2c(O)nc3cc(Cl)c(C(=O)Nc4ccncn4)cc3c2OCCC2CCCCN2)c1 (stereo not drawn)
2.55	O=C(COCc1ccncc1)N1CCN(c2ccc(Cl)cc2F)CC1
2.53	COc1ccc2c(C)cc(N[C@H]3CC[C@H](NCc4cn(C)c5ccccc45)C3)nc2c1
2.36	Cc1c(CN(C)C(=O)/C=C/c2cnc3c(c2)CCC(=O)N3)oc2ccccc12 [AFN-1252]
1.37	CCC(c1nc2ccoc2c(=O)n1Cc1ccccc1)N(CCCN)C(=O)c1ccc(C)cc1 (stereo not drawn)
